Reference: patent US20100204107A1, “USE OF URODILATIN AS A THERAPEUTIC AGENT” (priority 2007, published 2010)

System: Human Peripheral Blood Mononuclear Cells (PBMC)
Assay: T cell proliferation assay (PHA, 3H-thymidine)
Assay type: cell-based
Details: 10 micrograms per ml, 3 days plus 12 hours 3H-thymidine

Secretin
% of PHA induced control: 100.5%
